Measurements as given in PubChem BioAssay AID1963834 (Molecular Pharmacology Branch, DTP, NCI, 2024).

Test system: 873145-292-R-J1-PDC complex spheroid viability
Experiment: Anticancer human tumor 873145-292-R-J1-PDC patient-derived renal clear cell carcinoma cell line growth inhibition [POLQ]
Conditions: for IC50: curve of first compound; for viability, T/C: stronger effect = lower value
Description: Multicellular complex tumor spheroid response to Polymerase (POL) inhibitors (novobiocin, ART-558, RP6685) in combination with a variety of drugs and investigational agents in selected tumor cell lines
The POL inhibitors (novobiocin, ART-558, and RP6685) were evaluated both individually and in combination with standard of care and investigational anticancer small molecules within a complex spheroid model of solid tumors. . Complex spheroids include a stromal component modeled by human endothelial cells (HUVEC) and fibroblasts modeled by human mesenchymal stem cells (MSCs). The concentration ranges selected for each drug and investigational agent were based upon clinically achievable concentrations if the clinical Cmax of the agent was known.
Compounds. The drugs and investigational agents: novobiocin (NSC847541), ART-558 (NSC835418), RP-6685 (NSC848927), peposertib (NSC802822), ceralasertib (NSC780249), elimusertib (NSC800525), camonsertib (NSC841442), AZD-1390 (NSC803789), olaparib (NSC753686), talazoparib (NSC767125), rucaparib (NSC756644), sotorasib (NSC818433), MRTX-1133 (NSC836407), SN-38 (NSC673596), topotecan (NSC609699), epotoside (NSC141540), doxorubicin (NSC123127), gemcitabine (NSC613327), 5-fluorouracil (NSC19893), paclitaxel (NSC125973), vemurafenib (NSC761431), MSA-2 (NSC828583), SN-011 (NSC837082), adavosertib (NSC754352), prexasertib (NSC758257), carboplatin (NSC241240) and oxaliplatin (NSC266046), were obtained from the National Cancer Institute (NCI) Developmental Therapeutics Program Chemical Repository (21). The FDA-approved anticancer drug set is available from the Developmental Therapeutics Program at https://dtp.cancer.gov/organization/dscb/obtaining/. […] The stock solutions were prepared in dimethyl sulfoxide (DMSO, Sigma-Aldrich, St. Louis, MO, cat. D2650), except for the platinum compounds which were prepared in saline (Quality Biological, Gaithersburg, MD, cat. 114-055-101), at 800-fold the tested concentration and stored at -70 degrees C prior to their use. All drugs and investigational agents were tested over a range starting from a high concentration at or near the clinical Cmax and decreasing in half-log increments. If the clinical Cmax for an agent had not been determined, the highest concentration tested was 10 microM, except for SN-38, which was tested at a high concentration of 1 microM.
Cell Culture. All cells were maintained in an incubator at 37 degrees C and 5% CO2 with 95% humidity. The PDC lines were cultured according to standard operating procedures established by the NCI PDMR (https://pdmr.cancer.gov). Table 3 of the manuscript, lists the cell lines along with the number of the three cell types plated to form the mct-spheroids and media for tumor cell growth. After thawing, all PDC lines, except 997537-175-T-J1-PDC and 415267-285-R-J2-PDC, were cultured in Matrigel-coated flasks prepared with a working solution of 1X Ham's F-12 nutrient mix, without supplementation (Thermo Fisher Scientific, cat. 11765054), 100 U/mL penicillin-streptomycin (Thermo Fisher Scientific, cat. 15140122), and 2.5% Matrigel (Corning Inc., Corning, NY, cat. 354248) for the first three passages. The two PDC lines 997537-175-T-J1-PDC and 415267-285-R-J2-PDC were cultured on uncoated flasks. The 857933-349-R-J2-PDC line was cultured in 6C/Colon 1B media containing advanced DMEM/F-12 (Thermo Fisher Scientific, cat. 12634028), 10 mM HEPES (Thermo Fisher Scientific, cat. 15630080), 1X GlutaMAX supplement (Thermo Fisher Scientific, cat. 35050061), 0.1 mg/mL primocin (InvivoGen, San Diego, CA, cat. ant-pm-2), 10% defined fetal bovine serum, heat inactivated (HyClone Laboratories Inc., Logan, UT, cat. SH30070.03HI), 50% L-WRN conditioned media (ATCC, cat. CRL-3276), 1.25 mM N-Acetyl-L-cysteine (Sigma-Aldrich, cat. A9165), 10 mM nicotinamide (Sigma-Aldrich, cat. N0636), 1X B-27 supplement (Thermo Fisher Scientific, cat. 17504044), 1X N-2 supplement (Thermo Fisher Scientific, cat. […]

[1] = second compound 0.0316 µM, first compound 0.0316 µM
[2] = second compound 0.0316 µM, first compound 0.1 µM
[3] = second compound 0.0316 µM, first compound 0.316 µM
[4] = second compound 0.0316 µM, first compound 1 µM
[5] = second compound 0.0316 µM, first compound 3.16 µM
[6] = second compound 0.0316 µM, first compound 10 µM
[7] = second compound 0.1 µM, first compound 0.0316 µM
[8] = second compound 0.1 µM, first compound 0.1 µM
[9] = second compound 0.1 µM, first compound 0.316 µM
[10] = second compound 0.1 µM, first compound 1 µM
[11] = second compound 0.1 µM, first compound 3.16 µM
[12] = second compound 0.1 µM, first compound 10 µM
[13] = second compound 0.316 µM, first compound 0.0316 µM
[14] = second compound 0.316 µM, first compound 0.1 µM
[15] = second compound 0.316 µM, first compound 0.316 µM
[16] = second compound 0.316 µM, first compound 1 µM
[17] = second compound 0.316 µM, first compound 3.16 µM
[18] = second compound 0.316 µM, first compound 10 µM
[19] = second compound 1 µM, first compound 0.0316 µM
[20] = second compound 1 µM, first compound 0.1 µM
[21] = second compound 1 µM, first compound 0.316 µM
[22] = second compound 1 µM, first compound 1 µM
[23] = second compound 1 µM, first compound 3.16 µM
[24] = second compound 1 µM, first compound 10 µM
[25] = second compound 3.16 µM, first compound 0.0316 µM
[26] = second compound 3.16 µM, first compound 0.1 µM
[27] = second compound 3.16 µM, first compound 0.316 µM
[28] = second compound 3.16 µM, first compound 1 µM
[29] = second compound 3.16 µM, first compound 3.16 µM
[30] = second compound 3.16 µM, first compound 10 µM
[31] = second compound 10 µM, first compound 0.0316 µM
[32] = second compound 10 µM, first compound 0.1 µM
[33] = second compound 10 µM, first compound 0.316 µM
[34] = second compound 10 µM, first compound 1 µM
[35] = second compound 10 µM, first compound 3.16 µM
[36] = second compound 10 µM, first compound 10 µM
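Note: spheroids exposed to compounds for 7 days before viability readout.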
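Throughout, for viability, T/C: luminescence signal used as surrogate for viable cell content; 100% = DMSO vehicle control viability.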

## CC1COCCN1c1cc(C2(O)CC3CCC(C2)O3)c2cnn(-c3ccn[nH]3)c2n1 (centres undefined) + COC1C(OC(N)=O)C(O)C(Oc2ccc3c(O)c(NC(=O)c4ccc(O)c(CC=C(C)C)c4)c(=O)oc3c2C)OC1(C)C
Second compound 0.0316 µM
  IC50: 423 nM
Second compound 0.1 µM
  IC50: 562 nM
Second compound 0.316 µM
  IC50: 311 nM
Second compound 1 µM
  IC50: 484 nM
Second compound 3.16 µM
  IC50: 362 nM
Second compound 10 µM
  IC50: 691 nM
[1]
  viability, T/C: 90.3%
[2]
  viability, T/C: 71.8%
[3]
  viability, T/C: 53.9%
[4]
  viability, T/C: 40.4%
[5]
  viability, T/C: 38.6%
[6]
  viability, T/C: 37.2%
[7]
  viability, T/C: 85.8%
[8]
  viability, T/C: 67.2%
[9]
  viability, T/C: 57.1%
[10]
  viability, T/C: 43.6%
[11]
  viability, T/C: 39.3%
[12]
  viability, T/C: 38.5%
[13]
  viability, T/C: 86.3%
[14]
  viability, T/C: 72.9%
[15]
  viability, T/C: 50.2%
[16]
  viability, T/C: 40.2%
[17]
  viability, T/C: 49.5%
[18]
  viability, T/C: 37.7%
[19]
  viability, T/C: 84.3%
[20]
  viability, T/C: 68.6%
[21]
  viability, T/C: 58.5%
[22]
  viability, T/C: 38.9%
[23]
  viability, T/C: 36.3%
[24]
  viability, T/C: 37%
[25]
  viability, T/C: 93.8%
[26]
  viability, T/C: 73.5%
[27]
  viability, T/C: 52.9%
[28]
  viability, T/C: 38.3%
[29]
  viability, T/C: 36.2%
[30]
  viability, T/C: 38.5%
[31]
  viability, T/C: 87.7%
[32]
  viability, T/C: 71.9%
[33]
  viability, T/C: 58.3%
[34]
  viability, T/C: 45.6%
[35]
  viability, T/C: 41.6%
[36]
  viability, T/C: 40.9%

## CCCS(=O)(=O)Nc1ccc(F)c(C(=O)c2c[nH]c3ncc(-c4ccc(Cl)cc4)cc23)c1F + COC1C(OC(N)=O)C(O)C(Oc2ccc3c(O)c(NC(=O)c4ccc(O)c(CC=C(C)C)c4)c(=O)oc3c2C)OC1(C)C
Second compound 0.0316 µM
  IC50: > 10000 nM
Second compound 0.1 µM
  IC50: > 10000 nM
Second compound 0.316 µM
  IC50: > 10000 nM
Second compound 1 µM
  IC50: > 10000 nM
Second compound 3.16 µM
  IC50: > 10000 nM
Second compound 10 µM
  IC50: > 10000 nM
[1]
  viability, T/C: 118%
[2]
  viability, T/C: 98.8%
[3]
  viability, T/C: 99.4%
[4]
  viability, T/C: 107%
[5]
  viability, T/C: 90.7%
[6]
  viability, T/C: 62.5%
[7]
  viability, T/C: 113%
[8]
  viability, T/C: 108%
[9]
  viability, T/C: 108%
[10]
  viability, T/C: 112%
[11]
  viability, T/C: 89.8%
[12]
  viability, T/C: 57.7%
[13]
  viability, T/C: 104%
[14]
  viability, T/C: 92.5%
[15]
  viability, T/C: 98.9%
[16]
  viability, T/C: 99.8%
[17]
  viability, T/C: 94.9%
[18]
  viability, T/C: 57.3%
[19]
  viability, T/C: 96.9%
[20]
  viability, T/C: 111%
[21]
  viability, T/C: 102%
[22]
  viability, T/C: 107%
[23]
  viability, T/C: 94.2%
[24]
  viability, T/C: 60.9%
[25]
  viability, T/C: 102%
[26]
  viability, T/C: 103%
[27]
  viability, T/C: 105%
[28]
  viability, T/C: 91.2%
[29]
  viability, T/C: 89.5%
[30]
  viability, T/C: 53.2%
[31]
  viability, T/C: 89.3%
[32]
  viability, T/C: 93.3%
[33]
  viability, T/C: 98.8%
[34]
  viability, T/C: 106%
[35]
  viability, T/C: 93.2%
[36]
  viability, T/C: 64.7%
